Data from patent US11542313B2, “Incretin analogs and uses thereof” (Eli Lilly and Company, priority 2017, dated 2023).
pEC50, pKi: −log10 of the molar value. Read-outs that look alike come from different tables or passages of the source. *1 amine or outer side, *2 acyl side, *3 side chain or, on linkers, in order; H or OH if unused. Where a SMILES comes first, the peptide text is derived from it. Side-chain parts run from the residue outwards. [ ]: non-standard residue; d: D form. The star is where a group is joined. C20 diacid = O=C(O)CCCCCCCCCCCCCCCCCCC(=O)*; γGlu = O=C(O)[C@H](CCC(=O)[*:2])N[*:1]; αMeL = CC(C)C[C@](C)(N)C(=O)O; AEEA = NCCOCCOCC(=O)O; Aib = CC(C)(N)C(=O)O

Experiments:
[1] = target: T1, human glucagon receptor (GcgR) (Homo sapiens, UniProt P47871); experiment: Radioligand competition binding (SPA), human GcgR membranes
T1 construct: expressed in transfected cells; host or cells: HEK293 (membranes)
T1 sequence (P47871 26-477): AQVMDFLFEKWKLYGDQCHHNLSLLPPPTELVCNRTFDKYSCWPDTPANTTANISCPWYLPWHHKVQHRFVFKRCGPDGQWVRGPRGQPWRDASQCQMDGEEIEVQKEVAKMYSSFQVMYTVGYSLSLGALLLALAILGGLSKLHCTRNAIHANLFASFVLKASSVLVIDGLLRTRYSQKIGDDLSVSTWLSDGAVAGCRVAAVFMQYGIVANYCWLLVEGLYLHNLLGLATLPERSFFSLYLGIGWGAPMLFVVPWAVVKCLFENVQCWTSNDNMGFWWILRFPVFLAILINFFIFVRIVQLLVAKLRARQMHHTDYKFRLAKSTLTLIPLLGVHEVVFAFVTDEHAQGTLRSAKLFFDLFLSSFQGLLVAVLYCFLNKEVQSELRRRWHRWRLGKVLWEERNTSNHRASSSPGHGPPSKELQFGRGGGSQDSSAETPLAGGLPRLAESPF
Text: (§1) Radioligand competition binding assays are run to determine the equilibrium dissociation constant for exemplary compounds and comparator molecules.
(§2) Competition curves are plotted as the percent specific inhibition (y-axis) versus log concentration of compound (x-axis) and analyzed using a four parameter nonlinear regression fit with variable slope (ABase or Genedata).

[2] = target: T2, human GIP receptor (GIPR) (Homo sapiens, UniProt P48546); experiment: Radioligand competition binding (SPA), human GIPR membranes
T2 construct: expressed in transfected cells; host or cells: HEK293 (membranes)
T2 sequence (P48546 22-466): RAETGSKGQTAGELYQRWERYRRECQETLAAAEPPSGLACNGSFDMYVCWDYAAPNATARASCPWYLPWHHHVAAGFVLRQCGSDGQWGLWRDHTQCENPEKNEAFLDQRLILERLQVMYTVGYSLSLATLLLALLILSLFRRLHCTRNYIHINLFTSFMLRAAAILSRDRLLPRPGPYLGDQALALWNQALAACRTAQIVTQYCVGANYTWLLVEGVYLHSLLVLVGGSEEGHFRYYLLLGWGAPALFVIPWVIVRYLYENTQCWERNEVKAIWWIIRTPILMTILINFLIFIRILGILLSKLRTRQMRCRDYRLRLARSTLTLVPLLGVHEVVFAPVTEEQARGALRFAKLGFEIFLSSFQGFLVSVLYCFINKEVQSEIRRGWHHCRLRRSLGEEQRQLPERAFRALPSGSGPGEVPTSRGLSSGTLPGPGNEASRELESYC
Text: as §1, §2

[3] = target: T3, GLP-1 receptor (GLP-1R) (Homo sapiens, UniProt P43220); experiment: Radioligand competition binding (SPA), human GLP-1R membranes
T3 construct: expressed in transfected cells; host or cells: HEK293 (membranes)
T3 sequence (P43220 24-463): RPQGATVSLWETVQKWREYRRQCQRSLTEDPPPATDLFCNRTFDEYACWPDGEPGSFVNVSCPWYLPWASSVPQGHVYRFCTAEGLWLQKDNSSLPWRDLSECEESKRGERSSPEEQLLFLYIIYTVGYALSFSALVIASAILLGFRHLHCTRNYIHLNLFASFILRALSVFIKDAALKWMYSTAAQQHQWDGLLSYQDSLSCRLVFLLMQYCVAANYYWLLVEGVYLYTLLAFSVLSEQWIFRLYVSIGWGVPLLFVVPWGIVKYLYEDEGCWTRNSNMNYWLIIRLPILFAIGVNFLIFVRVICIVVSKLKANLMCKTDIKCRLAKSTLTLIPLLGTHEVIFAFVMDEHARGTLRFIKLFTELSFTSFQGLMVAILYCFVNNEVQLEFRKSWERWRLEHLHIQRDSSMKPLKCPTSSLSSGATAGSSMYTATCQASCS
Text: as §1, §2

[4] = target: T4, hGcgR (Homo sapiens, UniProt P47871); experiment: cAMP assay in HEK293 cells expressing hGcgR, 0.1% casein; type: cell-based; settings: in the presence of 0.1% casein; read-out: cAMP EC50, GcGR
T4 construct: expressed in transfected cells; host or cells: HEK293
T4 sequence (P47871 26-477): as the sequence (P47871 26-477) above

[5] = target: T5, hGIPR (Homo sapiens, UniProt P48546); experiment: cAMP assay in HEK293 cells expressing hGIPR, 0.1% casein; type: cell-based; settings: in the presence of 0.1% casein; read-out: cAMP EC50, GIPR
T5 construct: expressed in transfected cells; host or cells: HEK293
T5 sequence (P48546 22-466): T2 sequence (P48546 22-466)

[6] = target: hGLP-1R (Homo sapiens, UniProt P43220); experiment: cAMP assay in HEK293 cells expressing hGLP-1R, 0.1% casein; type: cell-based; settings: in the presence of 0.1% casein; read-out: cAMP EC50, GLP-1R
Chain of hGLP-1R (P43220 24-463): as the sequence (P43220 24-463) above

[7] = Pharmacokinetics in male Sprague Dawley rats; settings: for CL/F / Tmax / half-life: male, Sprague-Dawley, rat, plasma, sc, 100 nmol/kg; for AUCINF_D_obs / Cmax/D: single subcutaneous 100 nMol/kg, male Sprague Dawley rats, n = 3
Protocol: The pharmacokinetics of the exemplary analogs are evaluated following a single subcutaneous administration of 100 nM/kg to male Sprague Dawley rats. Blood samples are collected over 120 hours, and resulting individual plasma concentrations are used to calculate pharmacokinetic parameters. Peptide plasma (K3 EDTA) concentrations are determined using a qualified LC/MS method that measured the intact mass of the analog. Each peptide and an analog as an internal standard are extracted from 100% specie specified plasma using methanol with 0.1% formic acid. A Thermo Q-Exactive, High Resolution Instrument, and a Thermo Easy Spray PepMap are combined for LC/MS detection.

[8] = HEK293 membranes, SPA, bacitracin present, mean, read-out: Ki, GcgR
[9] = HEK293 membranes, SPA, bacitracin present, mean, read-out: Ki, GIPR
[10] = HEK293 membranes, SPA, bacitracin present, mean, read-out: Ki, GLP-1R

Row | Structure (SMILES) | pKi [1, 8] | pKi [2, 9] | pKi [3, 10] | pEC50 [4] | pEC50 [5] | pEC50 [6] | pKi [1] | pKi [2] | pKi [3] | CL/F [7] [mL/h/kg] | Tmax [7] [h] | half-life [7] [h] | AUCINF_D_obs [7] [hr*kg*nmol/L/nmol] | Cmax/D [7] [kg*nmol/L/nmol]
1 | CC[C@H](C)[C@H](NC(=O)[C@H](Cc1ccccc1)NC(=O)[C@H](C)NC(=O)[C@](C)(CCCCN)NC(=O)[C@H](CCC(N)=O)NC(=O)[C@H](C)NC(=O)[C@H](CCCCNC(=O)COCCOCCNC(=O)COCCOCCNC(=O)CC[C@H](NC(=O)CCCCCCCCCCCCCCCCCCC(=O)O)C(=O)O)NC(=O)[C@H](CCCCN)NC(=O)[C@H](CC(=O)O)NC(=O)[C@H](CC(C)C)NC(=O)[C@H](CC(C)C)NC(=O)[C@@H](NC(=O)[C@H](CO)NC(=O)[C@H](Cc1ccc(O)cc1)NC(=O)[C@H](CC(=O)O)NC(=O)[C@H](CO)NC(=O)[C@@H](NC(=O)[C@H](Cc1ccccc1)NC(=O)[C@@H](NC(=O)CNC(=O)[C@H](CCC(N)=O)NC(=O)C(C)(C)NC(=O)[C@@H](N)Cc1ccc(O)cc1)[C@@H](C)O)[C@@H](C)O)[C@@H](C)CC)C(=O)N[C@@H](CCC(=O)O)C(=O)N[C@@H](Cc1ccc(O)cc1)C(=O)N[C@@H](CC(C)C)C(=O)N[C@@H](CC(C)C)C(=O)N[C@@H](CCC(=O)O)C(=O)NCC(=O)NCC(=O)N1CCC[C@H]1C(=O)N[C@@H](CO)C(=O)N[C@@H](CO)C(=O)NCC(=O)N[C@@H](C)C(=O)N1CCC[C@H]1C(=O)N1CCC[C@H]1C(=O)N1CCC[C@H]1C(=O)N[C@@H](CO)C(N)=O [Example 8] | 7.52 | 10.02 | 7.53 | 9.92 | 9.94 | 9.93 | – | – | – | – | – | – | – | –
2 | CC[C@H](C)[C@H](NC(=O)[C@H](Cc1ccccc1)NC(=O)[C@H](C)NC(=O)[C@H](Cc1c[nH]cn1)NC(=O)[C@H](CCC(N)=O)NC(=O)[C@H](C)NC(=O)[C@H](CCCCNC(=O)CC[C@H](NC(=O)CC[C@H](NC(=O)CCCCCCCCCCCCCCCCCCC(=O)O)C(=O)O)C(=O)O)NC(=O)[C@H](CCCCN)NC(=O)[C@H](CC(=O)O)NC(=O)[C@H](CC(C)C)NC(=O)[C@](C)(CC(C)C)NC(=O)[C@@H](NC(=O)[C@H](CO)NC(=O)[C@H](Cc1ccc(O)cc1)NC(=O)[C@H](CC(=O)O)NC(=O)[C@H](CO)NC(=O)[C@@H](NC(=O)[C@H](Cc1ccccc1)NC(=O)[C@@H](NC(=O)CNC(=O)[C@H](CCC(N)=O)NC(=O)C(C)(C)NC(=O)[C@@H](N)Cc1ccc(O)cc1)[C@@H](C)O)[C@@H](C)O)[C@@H](C)CC)C(=O)N[C@@H](CCC(=O)O)C(=O)N[C@@H](Cc1ccc(O)cc1)C(=O)N[C@@H](CC(C)C)C(=O)N[C@@H](CC(C)C)C(=O)N[C@@H](CCC(=O)O)C(=O)NCC(=O)NCC(=O)N1CCC[C@H]1C(=O)N[C@@H](CO)C(=O)N[C@@H](CO)C(=O)NCC(=O)N[C@@H](C)C(=O)N1CCC[C@H]1C(=O)N1CCC[C@H]1C(=O)N1CCC[C@H]1C(=O)N[C@@H](CO)C(N)=O [Example 9] (H-Y[Aib]QGTFTSDYSI[αMeL]LDKK([γGlu-γGlu-C20 diacid])AQHAFIEYLLEGGPSSGAPPPS-NH2; N-terminus assumed) | 8.08 | 9.90 | 7.94 | 9.86 | 10.28 | 10.03 | – | – | – | – | – | – | – | –
3 | CC[C@H](C)[C@H](NC(=O)[C@H](Cc1ccccc1)NC(=O)[C@H](C)NC(=O)C(C)(C)NC(=O)[C@H](CCC(N)=O)NC(=O)[C@H](C)NC(=O)[C@H](CCCCNC(=O)COCCOCCNC(=O)COCCOCCNC(=O)CC[C@H](NC(=O)CCCCCCCCCCCCCCCCCCC(=O)O)C(=O)O)NC(=O)[C@H](CCCCN)NC(=O)[C@H](CC(=O)O)NC(=O)[C@H](CC(C)C)NC(=O)[C@H](CC(C)C)NC(=O)[C@@H](NC(=O)[C@H](CO)NC(=O)[C@H](Cc1ccc(O)cc1)NC(=O)[C@H](CC(=O)O)NC(=O)[C@H](CO)NC(=O)[C@@H](NC(=O)[C@H](Cc1ccccc1)NC(=O)[C@@H](NC(=O)CNC(=O)[C@H](CCC(N)=O)NC(=O)C(C)(C)NC(=O)[C@@H](N)Cc1ccc(O)cc1)[C@@H](C)O)[C@@H](C)O)[C@@H](C)CC)C(=O)N[C@@H](CCC(=O)O)C(=O)N[C@@H](Cc1ccc(O)cc1)C(=O)N[C@@H](CC(C)C)C(=O)N[C@@H](CC(C)C)C(=O)N[C@@H](CCC(=O)O)C(=O)NC(C)(C)C(=O)NCC(=O)N1CCC[C@H]1C(=O)N[C@@H](CO)C(=O)N[C@@H](CO)C(=O)NCC(=O)N[C@@H](C)C(=O)N1CCC[C@H]1C(=O)N1CCC[C@H]1C(=O)N1CCC[C@H]1C(=O)N[C@@H](CO)C(N)=O [Example 17] (H-Y[Aib]QGTFTSDYSILLDKK([AEEA-AEEA-γGlu-C20 diacid])AQ[Aib]AFIEYLLE[Aib]GPSSGAPPPS-NH2) | 8.24 | 10.05 | 7.99 | 9.87 | 10.36 | 9.82 | – | – | – | – | – | – | – | –
4 | CC[C@H](C)[C@H](NC(=O)[C@H](Cc1ccccc1)NC(=O)[C@H](C)NC(=O)[C@](C)(CCCCN)NC(=O)[C@H](CCC(N)=O)NC(=O)[C@H](C)NC(=O)[C@H](CCCCNC(=O)COCCOCCNC(=O)COCCOCCNC(=O)CC[C@H](NC(=O)CCCCCCCCCCCCCCCCCCC(=O)O)C(=O)O)NC(=O)[C@H](CCCCN)NC(=O)[C@H](CC(=O)O)NC(=O)[C@H](CC(C)C)NC(=O)[C@](C)(CC(C)C)NC(=O)[C@@H](NC(=O)[C@H](CO)NC(=O)[C@H](Cc1ccc(O)cc1)NC(=O)[C@H](CC(=O)O)NC(=O)[C@H](CO)NC(=O)[C@@H](NC(=O)[C@H](Cc1ccccc1)NC(=O)[C@@H](NC(=O)CNC(=O)[C@H](CCC(N)=O)NC(=O)C(C)(C)NC(=O)[C@@H](N)Cc1ccc(O)cc1)[C@@H](C)O)[C@@H](C)O)[C@@H](C)CC)C(=O)N[C@@H](CCC(=O)O)C(=O)N[C@@H](Cc1ccc(O)cc1)C(=O)N[C@@H](CC(C)C)C(=O)N[C@@H](CC(C)C)C(=O)N[C@@H](CCC(=O)O)C(=O)NCC(=O)NCC(=O)N1CCC[C@H]1C(=O)N[C@@H](CO)C(=O)N[C@@H](CO)C(=O)NCC(=O)N[C@@H](C)C(=O)N1CCC[C@H]1C(=O)N1CCC[C@H]1C(=O)N1CCC[C@H]1C(=O)N[C@@H](CO)C(N)=O [Example 3] | – | – | – | – | – | – | 7.92 | 10.35 | 8.22 | 6.9 | 16 | 19.2 | 146 | 2.5
5 | CC[C@H](C)[C@H](NC(=O)[C@H](Cc1ccccc1)NC(=O)[C@H](C)NC(=O)C(C)(C)NC(=O)[C@H](CCC(N)=O)NC(=O)[C@H](C)NC(=O)[C@H](CCCCNC(=O)COCCOCCNC(=O)COCCOCCNC(=O)CC[C@H](NC(=O)CCCCCCCCCCCCCCCCCCC(=O)O)C(=O)O)NC(=O)[C@H](CCCCN)NC(=O)[C@H](CC(=O)O)NC(=O)[C@H](CC(C)C)NC(=O)[C@](C)(CC(C)C)NC(=O)[C@@H](NC(=O)[C@H](CO)NC(=O)[C@H](Cc1ccc(O)cc1)NC(=O)[C@H](CC(=O)O)NC(=O)[C@H](CO)NC(=O)[C@@H](NC(=O)[C@H](Cc1ccccc1)NC(=O)[C@@H](NC(=O)CNC(=O)[C@H](CCC(N)=O)NC(=O)C(C)(C)NC(=O)[C@@H](N)Cc1ccc(O)cc1)[C@@H](C)O)[C@@H](C)O)[C@@H](C)CC)C(=O)N[C@@H](CCC(=O)O)C(=O)N[C@@H](Cc1ccc(O)cc1)C(=O)N[C@@H](CC(C)C)C(=O)N[C@@H](CC(C)C)C(=O)N[C@@H](CCC(=O)O)C(=O)NCC(=O)NCC(=O)N1CCC[C@H]1C(=O)N[C@@H](CO)C(=O)N[C@@H](CO)C(=O)NCC(=O)N[C@@H](C)C(=O)N1CCC[C@H]1C(=O)N1CCC[C@H]1C(=O)N1CCC[C@H]1C(=O)N[C@@H](CO)C(N)=O [Example 11] | – | – | – | – | – | – | 7.97 | 10.05 | 8.00 | 4.7 | 20 | 24.3 | 215.1 | 3.7
